{"source": "patent US20260207769A1", "about": "“ANTIBODY DRUG CONJUGATES” (YALE UNIVERSITY, priority 2022, published 2026)", "key": {"[1]": {"tested_on": "Capan-1 pancreatic cancer cells", "experiment": "Cell viability of Capan-1 cells (DM1, cD31N-DM1)", "assay_type": "cell-based", "conditions": "after 6 days", "text": "(§1) Cancer cell lines were acquired from ATCC and cultured according to well known methods in the art. Treatment with cytotoxic agents, antibodies, or ADCs refers to the addition of the cytotoxic agent, antibody or ADC (i.e., DM1 or cD31N-DM1, etc.) to the culture media for a set duration."}, "[2]": {"tested_on": "WT DLD-1 colorectal adenocarcinoma cells", "experiment": "Cell viability assay in WT DLD-1 cells", "assay_type": "cell-based, human", "conditions": "after 6 days", "text": "as §1\n(§2) BRCA2 deficient (BRCA2′) cells are more sensitive to DM1 because BRCA2 participates in DNA double-stranded break (DSB) repair.\nThe viability assay protocol is set forth in Example 3."}, "GL261 glioma cells": {"tested_on": "GL261 glioma cells", "experiment": "Cell viability of GL261 cells (DM1, cD31N-DM1)", "assay_type": "cell-based", "conditions": "after 6 days", "text": "as §1"}, "[3]": {"tested_on": "BRCA2^−/− DLD-1 colorectal adenocarcinoma cells", "experiment": "Cell viability assay in BRCA2-/- DLD-1 cells", "assay_type": "cell-based, human", "conditions": "BRCA2-/- DLD-1 cells, after 6 days", "text": "as §1, §2"}, "[4]": {"tested_on": "DAYO medulloblastoma cells", "experiment": "Cell viability of DAYO cells (DM1, cD31N-DM1)", "assay_type": "cell-based", "conditions": "after 3 days", "text": "as §1"}, "[5]": {"tested_on": "PEO-1 (BRCA2^−/−) ovarian adenocarcinoma cells", "experiment": "Cell viability of PEO-1 cells", "assay_type": "cell-based", "conditions": "BRCA2-/- PEO-1 cells, after 5 days", "text": "as §1\n(§3) The effects of longer-term treatment with SN38 and cD31N-SN38 on PEO-4 (WT) and PEO-1 (BRCA2^−/−) ovarian cancer cells were investigated."}, "[6]": {"tested_on": "PEO-4 (WT) ovarian adenocarcinoma cells", "experiment": "Cell viability of PEO-4 cells", "assay_type": "cell-based", "conditions": "WT PEO-4 cells, after 5 days", "text": "as §1, §3"}, "B16 melanoma cells": {"tested_on": "B16 melanoma cells", "experiment": "Cell viability of B16 melanoma cells (DM1, cD31N-DM1)", "assay_type": "cell-based", "conditions": "0.0001 nm to 1000 nm, after 3 days", "text": "as §1"}}, "data": [{"smiles": "COc1cc2cc(c1Cl)N(C)C(=O)C[C@H](OC(=O)[C@H](C)N(C)C(=O)CCS)[C@]1(C)O[C@H]1[C@H](C)[C@@H]1C[C@@](O)(NC(=O)O1)[C@H](OC)/C=C/C=C(\\C)C2", "note": "[DM1, N(2′)-deacetyl-N(2′)-(3-mercapto-1-oxopropyl)-maytansine]", "values": [{"measurement": "cytotoxicity (cell viability)", "setting": "[1]", "value": "cytotoxic to the Capan-1 pancreatic cancer cells in a concentration-dependent manner"}, {"measurement": "cytotoxicity (cell viability)", "setting": "[2]", "value": "cytotoxic"}, {"measurement": "cytotoxicity (cell viability)", "setting": "GL261 glioma cells", "value": "cytotoxic to the GL261 glioma cells in a concentration-dependent manner"}, {"measurement": "cytotoxicity (cell viability)", "setting": "[3]", "value": "cytotoxic"}, {"measurement": "cytotoxicity (cell viability)", "setting": "[4]", "value": "cytotoxic to the DAYO medulloblastoma cells in a concentration-dependent manner"}, {"measurement": "cytotoxicity (cell viability)", "setting": "[5]", "value": "cytotoxic"}, {"measurement": "cytotoxicity (cell viability)", "setting": "[6]", "value": "cytotoxic"}, {"measurement": "cytotoxicity (cell viability)", "setting": "B16 melanoma cells", "value": "cytotoxic to B16 melanoma cells in a concentration-dependent manner"}]}]}
